Experimental findings from patent publication US5068251A, “Lipoxygenase inhibiting compounds” (Abbott Laboratories, priority 1988, dated 1991) are described below.

One experiment addresses T1, 5-lipoxygenase (Rattus norvegicus, UniProt P12527).
T1 construct: 20,000×g supernatant from homogenized RBL-1 cells; endogenous in cells; host or cells: RBL-1 cells (20,000×g supernatant of the homogenate)
T1 sequence (P12527 1-673): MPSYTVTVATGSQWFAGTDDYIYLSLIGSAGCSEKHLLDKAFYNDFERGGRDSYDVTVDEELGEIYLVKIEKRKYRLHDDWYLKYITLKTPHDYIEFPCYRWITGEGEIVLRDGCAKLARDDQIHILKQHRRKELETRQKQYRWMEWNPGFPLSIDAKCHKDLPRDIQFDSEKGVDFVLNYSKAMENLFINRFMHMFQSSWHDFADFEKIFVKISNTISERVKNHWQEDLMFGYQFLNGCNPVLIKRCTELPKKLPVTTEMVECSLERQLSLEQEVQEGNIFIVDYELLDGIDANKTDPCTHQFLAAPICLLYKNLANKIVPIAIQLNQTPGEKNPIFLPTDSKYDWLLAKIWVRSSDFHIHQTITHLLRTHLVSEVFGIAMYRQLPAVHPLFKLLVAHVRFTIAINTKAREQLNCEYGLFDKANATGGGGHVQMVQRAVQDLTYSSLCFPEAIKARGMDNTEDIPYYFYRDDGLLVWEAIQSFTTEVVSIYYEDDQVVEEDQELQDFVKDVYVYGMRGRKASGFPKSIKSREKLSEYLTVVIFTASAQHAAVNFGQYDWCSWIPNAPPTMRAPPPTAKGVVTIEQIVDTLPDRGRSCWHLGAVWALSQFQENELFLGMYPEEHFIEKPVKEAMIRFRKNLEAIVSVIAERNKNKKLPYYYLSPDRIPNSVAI
The experiment is described as follows: Inhibition of 5-lipoxygenase activity in 20,000×g supernatant from homogenized RBL-1 cells. To be noted: linear regression of percentage inhibition versus log inhibitor concentration, read-out: IC50 (In vitro 5-lipoxygenase inhibitory potency). In kind it is biochemical. The method, then: Inhibition of 5-lipoxygenase activity was determined using the 20,000×g supernatant from homogenized RBL-1 cells in a similar manner as that described by Dyer and coworkers (Dyer, R. D.; Haviv, F.; Hanel, A. M.; Bornemier, D. A.; Carter, G. W. Fed. Proc , Fed. Am. Soc. Exp. Biol. 1984, 43, 1462A).

In a further experiment the test system is leukotriene biosynthesis. The experiment is described as follows: Inhibition of leukotriene biosynthesis in vivo, rat peritoneal anaphylaxis model. To be noted: 40 mg/kg i.p., 30 minutes prior to antigen challenge, peritoneal fluids collected 15 minutes after challenge, versus mean of control group. The method, then: Inhibition of the biosynthesis of leukotrienes in vivo after intraperitoneal administration of compound was determined using a rat peritoneal anaphylaxis model. In this model rats were injected intraperitoneally (ip) with rabbit antibody to bovine serum albumin (BSA) and three hours later injected ip with BSA to induce an antgen-antibody response. Rats were sacrificed 15 minutes after this challenge and the peritoneal fluids were collected and analyzed for leukotriene levels. Test compound was injected intraperitoneal 30 minutes prior to the antigen challenge. Percent inhibition values were determined by comparing the treatment group to the mean of the control group.

Structures are written as SMILES.

Broadly, the IC50 is the point on the concentration scale where inhibition reaches its midpoint. `CC(C)Cc1ccc(C(C)NC(=O)NO)cc1` (stereo not drawn) [Example 3, N'-hydroxy-N-[l-(4-(2'methylpropyl)phenyl)ethyl]urea]: the concentration for half-maximal inhibition (IC50) on 5-lipoxygenase came to 2.9 µM.

With `CC(C)Cc1ccc(C(C)CNC(=O)NO)cc1` (stereo not drawn) [Example 4, N'-hydroxy-N-[2-(4-(2'-methylpropyl)phenyl)]urea], the 50% inhibitory concentration (IC50) on 5-lipoxygenase is 1.9 µM.

As for `COc1ccc2c(c1)c(CNC(=O)N(C)O)c(C)n2C(=O)c1ccc(Cl)cc1` [Example 1, N'-hydroxy-N'-methyl-N-(4'-chlorobenzoyl-5-methoxy-2-methyl-3-indolyl)methyl urea], the “inhibition of leukotriene biosynthesis in vivo” value with leukotriene biosynthesis is 81%.
